Several values for one entry are separate records, joined by “and”; a condition that tells them apart may be missing. Equal entries are not always repeated.
Tested on: 883617-216-R-J1-PDC complex spheroid viability
Experiment: Anticancer human tumor 883617-216-R-J1-PDC patient-derived bladder carcinoma cell line growth inhibition
Conditions: for viability, T/C: stronger effect = lower value
Method in brief: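 Complex spheroids of tumor cells with HUVEC and human MSCs, exposed to iadademstat combined with other agents. Each agent tested in half-log steps from near clinical Cmax (else 10 microM top), DMSO ≤0.25%.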

[1] = curve of first compound, second compound 0.1 µM
[2] = curve of first compound, second compound 0.316 µM
[3] = curve of first compound, second compound 1 µM
[4] = curve of first compound, second compound 3.16 µM
[5] = curve of first compound, second compound 10 µM
[6] = second compound 0.1 µM, first compound 0.000316 µM
[7] = second compound 0.1 µM, first compound 0.001 µM
[8] = second compound 0.1 µM, first compound 0.00316 µM
[9] = second compound 0.1 µM, first compound 0.01 µM
[10] = second compound 0.1 µM, first compound 0.0316 µM
[11] = second compound 0.1 µM, first compound 0.1 µM
[12] = second compound 0.316 µM, first compound 0.000316 µM
[13] = second compound 0.316 µM, first compound 0.001 µM
[14] = second compound 0.316 µM, first compound 0.00316 µM
[15] = second compound 0.316 µM, first compound 0.01 µM
[16] = second compound 0.316 µM, first compound 0.0316 µM
[17] = second compound 0.316 µM, first compound 0.1 µM
[18] = second compound 1 µM, first compound 0.000316 µM
[19] = second compound 1 µM, first compound 0.001 µM
[20] = second compound 1 µM, first compound 0.00316 µM
[21] = second compound 1 µM, first compound 0.01 µM
[22] = second compound 1 µM, first compound 0.0316 µM
[23] = second compound 1 µM, first compound 0.1 µM
[24] = second compound 3.16 µM, first compound 0.000316 µM
[25] = second compound 3.16 µM, first compound 0.001 µM
[26] = second compound 3.16 µM, first compound 0.00316 µM
[27] = second compound 3.16 µM, first compound 0.01 µM
[28] = second compound 3.16 µM, first compound 0.0316 µM
[29] = second compound 3.16 µM, first compound 0.1 µM
[30] = second compound 10 µM, first compound 0.000316 µM
[31] = second compound 10 µM, first compound 0.001 µM
[32] = second compound 10 µM, first compound 0.00316 µM
[33] = second compound 10 µM, first compound 0.01 µM
[34] = second compound 10 µM, first compound 0.0316 µM
[35] = second compound 10 µM, first compound 0.1 µM
[36] = second compound 0.1 µM, first compound 0.316 µM
[37] = second compound 0.1 µM, first compound 1 µM
[38] = second compound 0.316 µM, first compound 0.316 µM
[39] = second compound 0.316 µM, first compound 1 µM
[40] = second compound 1 µM, first compound 0.316 µM
[41] = second compound 1 µM, first compound 1 µM
[42] = second compound 3.16 µM, first compound 0.316 µM
[43] = second compound 3.16 µM, first compound 1 µM
[44] = second compound 10 µM, first compound 0.316 µM
[45] = second compound 10 µM, first compound 1 µM
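Note: exposure lasted seven days after three days of spheroid growth.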
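Throughout, for viability, T/C: 100% = DMSO vehicle control luminescence.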

CC(C)CC(NC(=O)CNC(=O)c1cc(Cl)ccc1Cl)B1OC(=O)CC(CC(=O)O)(C(=O)O)O1 (configuration not stated) + NC1CC1c1ccc(-c2cccc(O)c2)cc1
IC50 [1]: 3.66 nM
IC50 [2]: 3.45 nM
IC50 [3]: 2.66 nM
IC50 [4]: 2.61 nM
IC50 [5]: 1.86 nM
viability, T/C [6]: 95.3%
viability, T/C [7]: 97.8%
viability, T/C [8]: 49.6%
viability, T/C [9]: 21.4%
viability, T/C [10]: 0.86%
viability, T/C [11]: 0.21%
viability, T/C [12]: 123%
viability, T/C [13]: 121%
viability, T/C [14]: 50.4%
viability, T/C [15]: 18%
viability, T/C [16]: 1%
viability, T/C [17]: 0.16%
viability, T/C [18]: 105%
viability, T/C [19]: 108%
viability, T/C [20]: 39.5%
viability, T/C [21]: 18.4%
viability, T/C [22]: 0.85%
viability, T/C [23]: 0.15%
viability, T/C [24]: 97.7%
viability, T/C [25]: 93.3%
viability, T/C [26]: 37.4%
viability, T/C [27]: 19.5%
viability, T/C [28]: 0.76%
viability, T/C [29]: 0.15%
viability, T/C [30]: 81.1%
viability, T/C [31]: 69.3%
viability, T/C [32]: 33.2%
viability, T/C [33]: 10.2%
viability, T/C [34]: 0.25%
viability, T/C [35]: 0.36%

Cn1ncnc1C1c2n[nH]c(=O)c3cc(F)cc(c23)NC1c1ccc(F)cc1 (configuration not stated) + NC1CCC(NC2CC2c2ccccc2)CC1
IC50 [1]: > 100 nM
IC50 [2]: > 100 nM
IC50 [3]: > 100 nM
IC50 [4]: > 100 nM
IC50 [5]: > 100 nM
viability, T/C [6]: 110%
viability, T/C [7]: 110%
viability, T/C [8]: 103%
viability, T/C [9]: 91.6%
viability, T/C [10]: 68.5%
viability, T/C [11]: 66.6%
viability, T/C [12]: 113%
viability, T/C [13]: 111%
viability, T/C [14]: 97.6%
viability, T/C [15]: 89.7%
viability, T/C [16]: 72.7%
viability, T/C [17]: 60%
viability, T/C [18]: 112%
viability, T/C [19]: 113%
viability, T/C [20]: 99.2%
viability, T/C [21]: 93.9%
viability, T/C [22]: 67.3%
viability, T/C [23]: 57.7%
viability, T/C [24]: 101%
viability, T/C [25]: 102%
viability, T/C [26]: 99.2%
viability, T/C [27]: 85.2%
viability, T/C [28]: 69.2%
viability, T/C [29]: 69.7%
viability, T/C [30]: 107%
viability, T/C [31]: 106%
viability, T/C [32]: 108%
viability, T/C [33]: 90.6%
viability, T/C [34]: 72.8%
viability, T/C [35]: 66.2%

O=C(c1cc(Cc2n[nH]c(=O)c3ccccc23)ccc1F)N1CCN(C(=O)C2CC2)CC1 + NC1CC1c1ccc(-c2cccc(O)c2)cc1
IC50 [1]: 855 nM
IC50 [2]: 784 nM
IC50 [3]: 1070 nM
IC50 [4]: 526 nM
IC50 [5]: 160 nM
viability, T/C [10]: 94.1%
viability, T/C [11]: 86.6%
viability, T/C [36]: 72.5%
viability, T/C [37]: 45.8%
viability, T/C (second compound 0.1 µM, first compound 3.16 µM): 37.5%
viability, T/C (second compound 0.1 µM, first compound 10 µM): 36.4%
viability, T/C [16]: 96%
viability, T/C [17]: 87.7%
viability, T/C [38]: 65.5%
viability, T/C [39]: 46.5%
viability, T/C (second compound 0.316 µM, first compound 3.16 µM): 34.9%
viability, T/C (second compound 0.316 µM, first compound 10 µM): 31.9%
viability, T/C [22]: 91.3%
viability, T/C [23]: 71.8%
viability, T/C [40]: 60.8%
viability, T/C [41]: 59.5%
viability, T/C (second compound 1 µM, first compound 3.16 µM): 33.5%
viability, T/C (second compound 1 µM, first compound 10 µM): 26.9%
viability, T/C [28]: 93.3%
viability, T/C [29]: 84.1%
viability, T/C [42]: 53.7%
viability, T/C [43]: 42.1%
viability, T/C (second compound 3.16 µM, first compound 3.16 µM): 35.9%
viability, T/C (second compound 3.16 µM, first compound 10 µM): 25.5%
viability, T/C [34]: 58%
viability, T/C [35]: 53.4%
viability, T/C [44]: 47.1%
viability, T/C [45]: 38%
viability, T/C (second compound 10 µM, first compound 3.16 µM): 31.1%
viability, T/C (second compound 10 µM, first compound 10 µM): 26.5%

Nc1ccccc1NC(=O)c1ccc(CNC(=O)OCc2cccnc2)cc1
viability, T/C (compound 0.00949 µM): 110% and 105%
viability, T/C (compound 0.03 µM): 94.2% and 104%
viability, T/C (compound 0.0949 µM): 64.6% and 56.3%
viability, T/C (compound 0.3 µM): 33.3% and 36%
viability, T/C (compound 0.949 µM): 15.7% and 17.6%
viability, T/C (compound 3 µM): 0.87% and 1.11%
IC50 (curve of compound): 167 nM and 163 nM

CC(C)CC(NC(=O)C(Cc1ccccc1)NC(=O)c1cnccn1)B(O)O (configuration not stated) + NC1CC1c1ccc(-c2cccc(O)c2)cc1
IC50 [1]: 0.874 nM
IC50 [2]: 0.885 nM
IC50 [3]: 0.949 nM
IC50 [4]: 0.798 nM
IC50 [5]: 0.581 nM
viability, T/C [6]: 104%
viability, T/C [7]: 42.8%
viability, T/C [8]: 0.61%
viability, T/C [9]: 0.03%
viability, T/C [10]: 0.03%
viability, T/C [11]: 0.12%
viability, T/C [12]: 108%
viability, T/C [13]: 43.1%
viability, T/C [14]: 0.43%
viability, T/C [15]: 0.02%
viability, T/C [16]: 0.02%
viability, T/C [17]: 0.12%
viability, T/C [18]: 124%
viability, T/C [19]: 46.5%
viability, T/C [20]: 0.86%
viability, T/C [21]: 0.02%
viability, T/C [22]: 0.02%
viability, T/C [23]: 0.56%
viability, T/C [24]: 108%
viability, T/C [25]: 35.9%
viability, T/C [26]: 1.57%
viability, T/C [27]: 0.04%
viability, T/C [28]: 0.04%
viability, T/C [29]: 0.3%
viability, T/C [30]: 82.5%
viability, T/C [31]: 21%
viability, T/C [32]: 0.27%
viability, T/C [33]: 0.21%
viability, T/C [34]: 0.61%
viability, T/C [35]: 0.22%

Nc1ncn(C2CC(O)C(CO)O2)c(=O)n1 (configuration not stated) + NC1CCC(NC2CC2c2ccccc2)CC1
IC50 [1]: > 1000 nM
IC50 [2]: > 1000 nM
IC50 [3]: > 1000 nM
IC50 [4]: > 1000 nM
IC50 [5]: > 1000 nM
viability, T/C [8]: 109%
viability, T/C [9]: 99.4%
viability, T/C [10]: 94.7%
viability, T/C [11]: 78.1%
viability, T/C [36]: 72.6%
viability, T/C [37]: 62.4%
viability, T/C [14]: 103%
viability, T/C [15]: 115%
viability, T/C [16]: 102%
viability, T/C [17]: 89.8%
viability, T/C [38]: 79.4%
viability, T/C [39]: 67.1%
viability, T/C [20]: 103%
viability, T/C [21]: 98.8%
viability, T/C [22]: 96.7%
viability, T/C [23]: 89.6%
viability, T/C [40]: 77.7%
viability, T/C [41]: 69.6%
viability, T/C [26]: 108%
viability, T/C [27]: 100%
viability, T/C [28]: 92.4%
viability, T/C [29]: 84.8%
viability, T/C [42]: 78.6%
viability, T/C [43]: 66.9%
viability, T/C [32]: 101%
viability, T/C [33]: 106%
viability, T/C [34]: 108%
viability, T/C [35]: 92.3%
viability, T/C [44]: 93.8%
viability, T/C [45]: 77.6%

Source: PubChem BioAssay AID1918945 (Molecular Pharmacology Branch, DTP, NCI, 2023)
